# Experimental data: paper PMC3108484 (Frontiers in Pharmacology, 2011)
# Tests used:
# [1] = biological target: Rat 5-HT1B (Rattus norvegicus, UniProt P28564); test: Radioligand binding: Rat 5-HT1B
# [2] = biological target: Human NK2 (Homo sapiens, UniProt P21452); test: Radioligand binding: Human NK2
# [3] = biological target: Human CCK1 (CCKA) (Homo sapiens, UniProt P32238); test: Radioligand binding: Human CCK1
# [4] = biological target: Human β1 (Homo sapiens, UniProt P08588); test: Radioligand binding: Human β1
# [5] = biological target: Rat NT (non-selective); test: Radioligand binding: Rat NT; conditions: [125I]-Tyr3-neurotensin 0.05 nM
# [6] = biological target: Human M3 (Homo sapiens, UniProt P20309); test: Radioligand binding: Human M3
# [7] = test system: Rat adenylyl cyclase; test: Enzyme inhibition: Rat adenylyl cyclase; conditions: ATP 500 μM, TD-8954 1 μM
# [8] = biological target: Human D5 (Homo sapiens, UniProt P21918); test: Radioligand binding: Human D5
# [9] = biological target: Human V2 (Homo sapiens, UniProt P30518); test: Radioligand binding: Human V2
# [10] = biological target: Rat α4β2 nAChR (α-BGTX-insensitive) (Rattus norvegicus, UniProt P09483+P12390); test: Radioligand binding: Rat α4β2 nAChR
# [11] = biological target: Rat AMPA; test: Radioligand binding: Rat AMPA; conditions: [3H]-AMPA 8 nM
# [12] = biological target: Rat P2Y; test: Radioligand binding: Rat P2Y; conditions: [35S]-dATP αS 10 nM
# [13] = biological target: Human A2A (Homo sapiens, UniProt P29274); test: Radioligand binding: Human A2A
# [14] = biological target: SK+Ca channel; test: Radioligand binding: SK+Ca channel; conditions: [125I]-apamin 0.004 nM
# [15] = biological target: Human VPAC2 (VIP2) (Homo sapiens, UniProt P41587); test: Radioligand binding: Human VPAC2
# [16] = read-out: % Inhibition of specific binding (1 μM)
# Chain of Human A2A (P29274 whole entry): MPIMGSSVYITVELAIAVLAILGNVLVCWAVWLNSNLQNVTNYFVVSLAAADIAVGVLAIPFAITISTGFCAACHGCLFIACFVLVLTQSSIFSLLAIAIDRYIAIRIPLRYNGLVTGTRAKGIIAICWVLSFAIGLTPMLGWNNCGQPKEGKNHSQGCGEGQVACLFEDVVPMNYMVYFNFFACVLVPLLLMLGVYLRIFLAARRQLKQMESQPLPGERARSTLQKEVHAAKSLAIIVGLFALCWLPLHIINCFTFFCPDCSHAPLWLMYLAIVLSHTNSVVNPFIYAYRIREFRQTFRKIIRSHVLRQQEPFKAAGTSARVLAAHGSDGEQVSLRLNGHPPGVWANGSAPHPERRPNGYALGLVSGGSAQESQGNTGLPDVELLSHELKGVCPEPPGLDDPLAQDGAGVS
# Chain of Human VPAC2 (VIP2) (P41587 24-438): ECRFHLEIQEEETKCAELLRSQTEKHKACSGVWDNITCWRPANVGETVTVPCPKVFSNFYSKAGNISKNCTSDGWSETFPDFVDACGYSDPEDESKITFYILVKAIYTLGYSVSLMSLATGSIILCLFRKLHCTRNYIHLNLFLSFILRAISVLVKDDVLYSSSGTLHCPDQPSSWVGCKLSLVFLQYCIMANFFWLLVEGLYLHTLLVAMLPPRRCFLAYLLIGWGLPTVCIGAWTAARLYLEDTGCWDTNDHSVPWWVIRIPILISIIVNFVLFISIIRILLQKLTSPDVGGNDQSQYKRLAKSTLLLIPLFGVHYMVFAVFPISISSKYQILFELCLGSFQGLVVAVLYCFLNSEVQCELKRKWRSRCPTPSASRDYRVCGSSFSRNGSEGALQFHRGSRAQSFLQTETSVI
# Chain of Rat α4β2 nAChR (α-BGTX-insensitive) (P09483 31-630): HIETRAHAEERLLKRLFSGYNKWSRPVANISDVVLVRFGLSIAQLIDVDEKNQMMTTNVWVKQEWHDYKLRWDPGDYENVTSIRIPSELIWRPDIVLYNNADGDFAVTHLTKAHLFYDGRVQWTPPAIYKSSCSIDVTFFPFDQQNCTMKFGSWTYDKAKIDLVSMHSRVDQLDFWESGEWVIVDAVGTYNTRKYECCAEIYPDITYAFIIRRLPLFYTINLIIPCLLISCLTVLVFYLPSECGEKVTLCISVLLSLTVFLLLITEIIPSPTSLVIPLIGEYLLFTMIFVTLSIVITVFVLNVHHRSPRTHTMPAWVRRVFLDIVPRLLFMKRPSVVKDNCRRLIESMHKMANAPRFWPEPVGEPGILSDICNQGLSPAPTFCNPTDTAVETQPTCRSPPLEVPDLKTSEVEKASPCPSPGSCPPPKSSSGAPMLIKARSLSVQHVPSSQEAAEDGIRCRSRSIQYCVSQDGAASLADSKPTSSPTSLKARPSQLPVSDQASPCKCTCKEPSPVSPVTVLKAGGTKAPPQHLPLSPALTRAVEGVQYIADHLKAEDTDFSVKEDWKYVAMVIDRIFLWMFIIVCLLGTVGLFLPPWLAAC
# Chain of Rat α4β2 nAChR (α-BGTX-insensitive) (P12390 25-500): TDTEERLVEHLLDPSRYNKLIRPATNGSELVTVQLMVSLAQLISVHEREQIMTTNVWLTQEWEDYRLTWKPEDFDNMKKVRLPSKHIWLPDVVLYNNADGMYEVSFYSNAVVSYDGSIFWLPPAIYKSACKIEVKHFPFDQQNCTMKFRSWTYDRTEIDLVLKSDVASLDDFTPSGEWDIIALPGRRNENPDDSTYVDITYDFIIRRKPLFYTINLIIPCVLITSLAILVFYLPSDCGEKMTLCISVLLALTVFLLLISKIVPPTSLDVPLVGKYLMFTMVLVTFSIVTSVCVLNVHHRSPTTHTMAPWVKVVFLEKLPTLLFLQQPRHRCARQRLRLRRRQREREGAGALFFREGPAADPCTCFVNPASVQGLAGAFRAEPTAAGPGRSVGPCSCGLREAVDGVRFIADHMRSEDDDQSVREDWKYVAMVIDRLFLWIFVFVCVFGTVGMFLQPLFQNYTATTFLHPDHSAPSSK
# Chain of Rat 5-HT1B (P28564 whole entry): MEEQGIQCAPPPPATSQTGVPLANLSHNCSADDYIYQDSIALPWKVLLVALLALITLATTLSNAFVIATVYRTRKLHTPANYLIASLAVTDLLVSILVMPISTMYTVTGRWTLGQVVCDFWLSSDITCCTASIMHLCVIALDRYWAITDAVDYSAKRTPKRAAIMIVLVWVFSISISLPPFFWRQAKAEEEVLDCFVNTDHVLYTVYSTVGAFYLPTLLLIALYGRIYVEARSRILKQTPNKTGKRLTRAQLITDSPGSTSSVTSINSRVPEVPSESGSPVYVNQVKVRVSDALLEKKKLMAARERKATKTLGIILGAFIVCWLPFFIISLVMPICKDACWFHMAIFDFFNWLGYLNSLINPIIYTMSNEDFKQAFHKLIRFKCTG
# Chain of Human CCK1 (CCKA) (P32238 whole entry): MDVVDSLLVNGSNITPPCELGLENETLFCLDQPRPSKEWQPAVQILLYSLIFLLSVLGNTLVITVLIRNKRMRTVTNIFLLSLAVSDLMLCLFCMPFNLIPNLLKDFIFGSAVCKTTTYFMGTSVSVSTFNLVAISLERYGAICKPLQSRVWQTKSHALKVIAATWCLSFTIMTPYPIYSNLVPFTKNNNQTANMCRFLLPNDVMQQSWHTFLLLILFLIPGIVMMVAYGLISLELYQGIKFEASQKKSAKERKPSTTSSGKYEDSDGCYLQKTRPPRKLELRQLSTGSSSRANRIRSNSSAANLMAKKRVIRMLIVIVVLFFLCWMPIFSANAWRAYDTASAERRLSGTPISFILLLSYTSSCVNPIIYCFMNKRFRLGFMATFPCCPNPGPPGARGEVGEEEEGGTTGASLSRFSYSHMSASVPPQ
# Chain of Human M3 (P20309 whole entry): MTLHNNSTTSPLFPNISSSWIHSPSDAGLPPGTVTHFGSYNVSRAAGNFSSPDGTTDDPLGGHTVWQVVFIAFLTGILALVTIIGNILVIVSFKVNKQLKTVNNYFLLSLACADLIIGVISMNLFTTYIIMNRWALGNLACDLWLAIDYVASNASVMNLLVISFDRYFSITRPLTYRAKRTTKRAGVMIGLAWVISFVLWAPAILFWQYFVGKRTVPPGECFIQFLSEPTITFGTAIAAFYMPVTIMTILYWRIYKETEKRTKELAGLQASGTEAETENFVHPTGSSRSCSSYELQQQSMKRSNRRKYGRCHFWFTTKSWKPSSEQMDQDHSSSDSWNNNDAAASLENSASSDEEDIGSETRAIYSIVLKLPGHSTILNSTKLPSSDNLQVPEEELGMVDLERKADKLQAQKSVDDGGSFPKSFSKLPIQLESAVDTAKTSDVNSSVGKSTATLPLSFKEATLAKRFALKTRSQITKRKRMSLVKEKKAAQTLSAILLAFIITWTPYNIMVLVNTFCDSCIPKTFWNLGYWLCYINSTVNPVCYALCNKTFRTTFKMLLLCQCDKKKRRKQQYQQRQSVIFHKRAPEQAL
# Chain of Human D5 (P21918 whole entry): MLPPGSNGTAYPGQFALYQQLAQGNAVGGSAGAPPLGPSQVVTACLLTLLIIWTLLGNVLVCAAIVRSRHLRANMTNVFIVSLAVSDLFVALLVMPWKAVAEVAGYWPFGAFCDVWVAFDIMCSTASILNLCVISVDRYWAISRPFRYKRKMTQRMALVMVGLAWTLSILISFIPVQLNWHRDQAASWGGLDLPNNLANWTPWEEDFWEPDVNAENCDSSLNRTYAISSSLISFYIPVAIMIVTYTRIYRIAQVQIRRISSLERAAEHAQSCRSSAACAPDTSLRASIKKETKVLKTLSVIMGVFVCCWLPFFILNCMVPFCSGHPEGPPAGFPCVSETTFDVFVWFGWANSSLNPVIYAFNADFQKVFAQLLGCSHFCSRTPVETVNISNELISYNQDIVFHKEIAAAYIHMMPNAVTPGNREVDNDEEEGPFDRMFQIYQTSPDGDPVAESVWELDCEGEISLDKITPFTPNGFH
# Chain of Human β1 (P08588 whole entry): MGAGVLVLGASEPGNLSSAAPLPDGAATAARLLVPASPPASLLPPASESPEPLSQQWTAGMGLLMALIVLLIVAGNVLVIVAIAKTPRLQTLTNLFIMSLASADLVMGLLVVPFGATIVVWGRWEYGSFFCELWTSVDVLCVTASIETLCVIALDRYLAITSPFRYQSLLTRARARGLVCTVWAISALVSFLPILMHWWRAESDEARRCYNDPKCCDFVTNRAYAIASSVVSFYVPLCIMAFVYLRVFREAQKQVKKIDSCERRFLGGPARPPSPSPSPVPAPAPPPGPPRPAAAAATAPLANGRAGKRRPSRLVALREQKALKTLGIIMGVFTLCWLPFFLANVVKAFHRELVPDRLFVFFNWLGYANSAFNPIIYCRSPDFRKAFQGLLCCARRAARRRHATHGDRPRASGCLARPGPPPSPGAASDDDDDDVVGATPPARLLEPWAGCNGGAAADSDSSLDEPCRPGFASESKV
# Chain of Human NK2 (P21452 whole entry): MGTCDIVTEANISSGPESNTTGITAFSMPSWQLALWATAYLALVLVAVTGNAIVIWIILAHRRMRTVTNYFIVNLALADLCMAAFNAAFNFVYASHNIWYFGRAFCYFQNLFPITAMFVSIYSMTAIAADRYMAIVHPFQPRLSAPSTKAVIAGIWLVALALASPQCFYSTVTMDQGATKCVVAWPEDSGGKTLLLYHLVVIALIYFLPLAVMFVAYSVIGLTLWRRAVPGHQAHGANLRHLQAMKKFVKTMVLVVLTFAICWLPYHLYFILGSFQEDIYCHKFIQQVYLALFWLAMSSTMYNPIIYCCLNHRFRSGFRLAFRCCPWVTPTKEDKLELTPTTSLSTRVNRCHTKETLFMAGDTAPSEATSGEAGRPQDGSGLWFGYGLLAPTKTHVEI
smiles,measurement,setting,value
"COC(=O)N1CCC(CN2CCC(CNC(=O)c3cccc4[nH]c(C(C)C)nc34)CC2)CC1 [TD-8954, 4-(4-{[(2-isopropyl-1H-benzoimidazole-4-carbonyl)amino]methyl}-piperidin-1-ylmethyl)piperidine-1-carboxylic acid methyl ester]",Ki,[1],> 1000 nM
same,Ki,[2],> 1000 nM
same,Ki,[3],> 1000 nM
same,Ki,[4],> 1000 nM
same,pKi,[5],<6
same,% Inhibition of specific binding (1 μM),[5]; TD-8954 1 μM,4%
same,Ki,[6],> 10000 nM
same,% Inhibition of control (1 μM),[7],5%
same,Ki,[8],> 1000 nM
same,Ki,[9],> 1000 nM
same,Ki,[10],> 1000 nM
same,inhibition at 1 µM,[10]; [16],-2%
same,pKi,[11],<6
same,% Inhibition of specific binding (1 μM),[11]; TD-8954 1 μM,−4%
same,pKi,[12],<6
same,% Inhibition of specific binding (1 μM),[12]; TD-8954 1 μM,8%
same,Ki,[13],> 1000 nM
same,% Inhibition of specific binding (1 μM),"[13]; Human A2A, [3H]-CGS 21680 6 nM, TD-8954 1 μM",16%
same,pKi,[14],<6
same,% Inhibition of specific binding (1 μM),[14]; TD-8954 1 μM,−4%
same,Ki,[15],> 1000 nM
same,inhibition at 1 µM,[15]; [16],-19%
